Two compounds from patent US9216973B2, “Insecticidal compounds” (Syngenta Participations AG, priority 2008, dated 2015) can be followed below.

In the case of `Cc1c(C(=O)NC2CSC2)cnn1C1=NOC(c2cc(Cl)cc(Cl)c2)(C(F)(F)F)C1` (centres unmarked) [B2], the melting point (commonly the temperature, or range, at which the solid turns liquid) worked out at 77 °C.
Then `Cc1nn(C2=NOC(c3cc(Cl)cc(Cl)c3)(C(F)(F)F)C2)cc1C(=O)NC1CSC1` (centres unmarked) [B1], with 177 to 180 °C.
